This is an account of results in US20100113599A1, “AMPHIPATHIC CARBOXYLATES FOR THE TREATMENT OF IMMUNE-RELATED DISORDERS” (Syndromex Ltd. c/o Yissum Research Development Company, of, priority 2007, published 2010).

One test has as its system gp130. Nature of the test: gp130 protein levels in HepG2 cells (Western blot). The format is cell-based, human. The settings on record: 200 μM for 17 and 24 h, LIF 20 ng/ml. Here is the method: (§1) MEDICA drugs inhibit LIF-induced STAT3 phosphorylation. HepG2 cells were incubated with M16αα (200 μM) for 17 and 24 h. At each time point LIF (20 ng/ml) was added for the last 20 minutes (for protein) or for the last 3 h (for mRNA). Western blots of cell lysates were reacted with anti gp130 and anti P-STAT3 (Y705) antibodies and normalized by β-actin.
(§2) MEDICA drugs inhibit IL-6-induced STAT3 phosphorylation. HepG2 cells were incubated for 40 h with […] M16αα. IL-6 (20 ng/ml) was added for the last 15 h. Western blots of cell lysates were reacted, with anti GP-130, anti STAT3, anti P-STAT3 (Y705) and anti P-STAT3 (S727) antibodies and normalized by β-actin. Abbreviations: cont. (control), dim. (dimer), Tot. (total), mono. (monomer).
(§3) The examined effect of MEDICA drugs on expression of APP, was further analyzed by analyzing the effect of M16αα on downstream elements in the signaling pathway leading to expression of APP. Signal Transducers and Activators of Transcription 3 (STAT3), is a transcription factor phosphorylated by JAK kinases in response to cytokine activation of a cell surface receptor tyrosine kinases. Cytokines that activate STAT3 include growth hormone, IL-6 family cytokines, Oncostatin, LIF, CNTF and G-CSF, Leptin and others. […]
In general terms: Immunoblotting shows a protein as a band on a membrane.

Test [1] relates to human CRP. As to the kind of experiment: LPS-induced human CRP in hCRPtg mice. In kind it is in vivo. As to conditions: 0.06% (W/W) (about 60 mg/kg body weight/day) for fourteen days, LPS 25 μg/mice last 18 h. On the procedure: The effect of M16αα in decreasing human CRP induced by LPS injection was analyzed in hCRPtg mice treated with M16αα for 14 days and challenged with LPS.
(§4) Therefore, hCRPtg mice were treated for ten days with M16αα (80 mg/kg/d) dissolved in 1% CMC and administered by gavage. Plasma CRP was determined by ELISA at the beginning and at the end of treatment. […] The inventors further examined the effect of the MEDICA drugs on LPS-induced CRP. Therefore, CRP expression was analyzed in hCRPtg mice treated with M16αα 0.06% (W/W) (about 60 mg/kg body weight/day) for fourteen days and challenged with LPS (25 μg/mice) for the last 18 h. As illustrated by the histogram of FIG. 25, treatment with M16αα decreases LPS-induced levels of human CRP.

The test system of test [2] is STAT3. Nature of the test: IL-6-induced STAT3 phosphorylation in Hek293 kidney cells (Western blot). The format is cell-based. As to conditions: 250 μM 9 h, serum free medium 0.2% Albumin, IL-6 20 ng/ml last 5.5 h. On the procedure:
Hek293 cells were incubated for 9 h with M16αα (250 μM) in serum free medium containing 0.2% Albumin. IL-6 (20 ng/ml) was added during the last 5.5 h period. Western blots of cell lysates were reacted with anti gp130 and anti P-STAT3 (Y705) antibodies and normalized by β-actin. Abbreviations: cont. (control).
as §3, with “others. As illustrated by FIG. 1, upon cytokine activation, the STAT3 proteins dimerize and are localized to the nucleus where they activate transcription of APP as well as of other cytokine-responsive genes coding for cell survival, growth and proliferation. Therefore, the inventors next examined whether the effect of MEDICA drugs on the expression of APP is a result of interfering with STAT3 transcription activity or whether MEDICA drugs are involved in a more upstream element of the transduction pathway such as the gp130 receptor.” for “others.”

The test system of test [3] is STAT3. Nature of the test: LIF- or IL-6-induced STAT3 phosphorylation in HepG2 cells (Western blot). In kind it is cell-based, human. On the procedure:
as §1, §2
The examined effect of MEDICA drugs on expression of APP, was further analyzed by analyzing the effect of M16αα on downstream elements in the signaling pathway leading to expression of APP. Signal Transducers and Activators of Transcription 3 (STAT3), is a transcription factor phosphorylated by JAK kinases in response to cytokine activation of a cell surface receptor tyrosine kinases. Cytokines that activate STAT3 include growth hormone, IL-6 family cytokines, Oncostatin, LIF, CNTF and G-CSF, Leptin and others. As illustrated by FIG. 1, upon cytokine activation, the STAT3 proteins dimerize and are localized to the nucleus where they activate transcription of APP as well as of other cytokine-responsive genes coding for cell survival, growth and proliferation. Therefore, the inventors next examined whether the effect of MEDICA drugs on the expression of APP is a result of interfering with STAT3 transcription activity or whether MEDICA drugs are involved in a more upstream element of the transduction pathway such as the gp130 receptor. Since dimerization and activation of STAT3 is dependent on its phosphorylation in both, tyrosine 705 (pY^705) and serine 727 (pS^727) residues, the inventors next examined the effect of M16αα on the phosphorylation of STAT3. Thus, HepG2 cells were incubated with M16αα (200 μM) for 17 and 24 h. […]

Test [4] concerns human CRP. Nature of the test: Basal plasma human CRP in hCRPtg mice (ELISA). The settings on record: 80 mg/kg/d by gavage for ten days, before treatment 0.619. In kind it is in vivo. Here is the method:
hCRPtg were treated for 10d with M16αα (80 mg/kg/d) dissolved in 1% CMC and administered by gavage. Plasma basal CRP was determined before and at the end of treatment by ELISA.
Unlike human CRP, mouse CRP is not an acute-phase reactant, and is synthesized hi trace amounts only. However, male hCRP transgene mice (hCRPtg), having the human CRP gene flanked by most of human CRP promoter integrated in their genome, constitutively produce human CRP, with serum levels ranging between 10 and 20 μg/mL.
as §4
On the technique in general: In an ELISA, binding on a coated surface is turned into a signal by an enzyme label.

In another test the test system is U266 cells. As to the kind of experiment: Cell cycle arrest markers in MM U266 cells (Western blot). In kind it is cell-based. The settings on record: 200 μM, 24 h. Here is the method: U266 cells were cultured with 200 μM M16αα in RPMI 1640 medium with 10% FCS for 24 h, lysed, Western blotted and reacted with anti Cyclin D1, p-P53 (S15) and p-Rb as indicated.

The mark [5] stands for this setting: 200 mM M16αα 40 h, IL-6 20 ng/ml last 15 h.

Structures are written as SMILES.

With `CC(C)(CCCCCCCCCCCCC(C)(C)C(=O)O)C(=O)O` [M16αα, 2,2,15,15-tetramethyl-hexadecanedioic acid], in the test on gp130, the gp130 protein levels entry is “significantly reduced”. Further, the “LPS-induced levels of human CRP” value in the test on human CRP [1] is “decreases”. In the test on STAT3 [2], the “IL-6-induced phosphorylation of STAT3 Y705” value was “Inhibition”. Moreover, the “LIF-induced phosphorylation of tyrosine 705 residue of STAT3” value with STAT3 [3] (200 μM for 17 and 24 h, LIF 20 ng/ml) was “clearly inhibits”. Further, in the test with STAT3 [3] (setting [5]), the “expression of STAT3 (total STAT3)” value is “not affected” and the “phosphorylation of STAT3 serine 727 residue” value is on record as “significantly inhibited”. For the same compound, the “basal levels of human CRP in plasma at the end of treatment” value with human CRP [4] was 0.396. In the test on U266 cells, the “Cyclin D1 expression” value was “reduction”, the “phosphorylated Rb” value is recorded as “reduction” and the “phosphorylated p53” value is listed as “increase”.
